Measurements as given in publication PMC8750417, “Intracellular Amplifiers of Reactive Oxygen Species Affecting Mitochondria as Radiosensitizers” (Cancers, 2021).

Tested on: Jurkat cells
Assay: Total intracellular ROS (CM-DCFH-DA), Jurkat
Assay type: cell-based, human
Conditions: 1 h
Procedure: Monitoring total intracellular ROS (tROS)
A2780 cells were seeded in RPMI 1640 medium containing 5% FBS, 1% L-glutamine and 1% penicillin/streptomycin in a 24-well microtiter plate (total volume 0.5 mL) at a density of 200 cells/µL one day before the experiment. On the day of the experiment, the cells were washed twice with DPBS buffer and the medium was replaced with HBSS (Hanks' Balanced Salt solution, 500 μL). CM-DCFH-DA (5-(6-)chloromethyl-2',7'- dichlorodihydrofluorescein diacetate, Thermo- Fisher) solution (0.1 mM in DMSO, 5 μL) was added (final concentration 1 µM) and the cells were incubated in the dark chamber filled with CO2 (5%) at 37 °C for 15 min. […] Finally, the fluorescence of live cells (λex = 488 nm, λem = 525 nm) in the suspensions was determined by using flow cytometry (Figure 4A, 5C).
Intracellular ROS release in Jurkat cells was monitored analogously (Figure S58).
Figure S58. […] OY-axis “Fluorescence”: the increase of the mean fluorescence (λex = 488 […]

SMILES: CC1(C)OB(c2ccc(COC(=O)N(Cc3cn(Cc4ccc(Cn5cc(Cc6ccccc6)nn5)cc4)nn3)[c-]3cccc3)cc2)OC1(C)C.[Fe+2].c1cc[cH-]c1 [2c]
- total ROS (tROS) vs background: significantly higher than its background levels
